{
  "source": "patent US20260347403A1",
  "about": "“FUNGICIDAL COMPOUND” (priority 2022, published 2026)",
  "system": "Puccinia recondita",
  "assay": "Leaf disc mixture assay with malonomicin, Puccinia recondita, preventive spray timing, 8 dpi",
  "format": "in vivo, Puccinia recondita on wheat (cultivar Kanzler)",
  "details": "compound of Formula I(a) lines 1-A to 2-D = 200, 100, 50, 25, 12.5, 6.25, 3.13, 0 ppm",
  "experimental": "A stock solution for the lipopeptide compound of Formula I(a) was produced in DMSO (max. 10 mg/ml). Malonomicin was produced according to Law et al, 2018 (Nature Catalys is |VOL 1|DECEMBER 2018|977-984). A stock solution of malonomicin was produced in water plus 0.025% Tween®20.\nAssays to test efficacy of mixtures of compound of Formula I(a) in combination with malonomicin on the control of fungal pathogens in a leaf disc assay were designed for two 24well plates.\nTable 22 and Table 23. Outline of 24well testplate (1) and testplate (2) including concentration of compounds sprayed per well. The upper number in the cell indicates compound of Formula I(a) concentration (ppm), the lower number malonomicin concentration (ppm). Column (1) holds a dilution series of compound of Formula I(a), row (2-D) hold a dilution series of malonomicin. Well 2-D-(1) represents an untreated check. This design was applied for tests including Puccinia recondita (EPPO code: PUCCRE) with preventive and curative spray timing.\nA first set of master plates with 1× concentrated spray solution of the lipopeptide compound of Formula I(a) stock diluted in water with concentrations according to table 22, table 23, table 25 or table 26, respectively, was prepared. Each well contained 2% DMSO and 0.025% Tween20. Accordingly, a second set of master plates with 1× concentrated malonomicin stock diluted in water was prepared. Each well of the second set contained 0.025% Tween20. Leaf segments placed on agar in 24well plates were sprayed with 8 μl of solution from the master plate containing the lipopeptide compound of Formula I(a) and the leaf segments were let to dry, followed 2 hours later by 8 μl of solution from the master plate containing malonomicin. After second sprays had dried, leaf segments were infected with fungal spores to obtain a preventive application timing. Alternatively, leaf segments infected one day before spray of the compounds were used, resulting in a curative spray timing. In addition, several plates were produced where leaf segments were sprayed 2× in absence of test compound (with only DMSO and Tween20), representing the untreated check samples. For each leaf segment percent leaf coverage of disease symptoms was assessed. Percent leaf coverage reduction relative to the untreated check was calculated. Efficacy of the mixtures was tested in duplicate and on different fungal species. Reported efficacy values are the average of two replicate results.\nPuccinia recondita (EPPO Code: PUCCRE) with Preventive Spray Timing.\nWheat (cultivar Kanzler) leaf segments are placed on agar in multiwell plates (24-well format) and sprayed with test solutions (8 ul per well). After drying, the leaf disks are inoculated with a spore suspension of the fungus. After appropriate incubation the activity of a compound is assessed 8 dpi (days after inoculation) as preventive fungicidal activity.",
  "data": [
    {"smiles": "NC[C@@H]1NC(=O)C(C(=O)CC(NC(=O)[C@@H](N)CO)(C(=O)O)C(=O)O)=C1O", "note": "[malonomicin, {[(2S)-2-amino-3-hydroxypropanoyl]amino}{2-[(5S)-5-(aminomethyl)-4-hydroxy-2-oxo-2,5-dihydro-1H-pyrrol-3-yl]-2-oxoethyl}malonic acid]", "values": [
      {"measurement": "control of fungal growth (% reduction of symtoms on the leaf segment as compared to untreated check)", "setting": "column (2): malonomicin 200 ppm", "value": 100, "unit": "%"},
      {"measurement": "control of fungal growth (% reduction of symtoms on the leaf segment as compared to untreated check)", "setting": "column (3): malonomicin 20 ppm", "value": 100, "unit": "%"},
      {"measurement": "control of fungal growth (% reduction of symtoms on the leaf segment as compared to untreated check)", "setting": "column (4): malonomicin 6.67 ppm", "value": 80, "unit": "%"},
      {"measurement": "control of fungal growth (% reduction of symtoms on the leaf segment as compared to untreated check)", "setting": "column (5): malonomicin 2.22 ppm", "value": 10, "unit": "%"},
      {"measurement": "control of fungal growth (% reduction of symtoms on the leaf segment as compared to untreated check)", "setting": "column (6): malonomicin 0.74 ppm", "value": 0, "unit": "%"}
    ]}
  ]
}
